Assay results: patent USRE41614E1, “Synthetic analogs of ecteinascidin-743” (President and Fellows of Harvard College, priority 1998, dated 2010)
≈ marks a conversion by molar mass, not a printed value. Like-named read-outs stand apart in the source and are kept apart here.

Tests used:
Assay type in all cases: cell-based
[1] = test system: A-549 (Lung) human cancer cell line; assay: In vitro anti-tumor screen, cancer cell antiproliferative assay, A-549
Experimental: (§1) The following tables summarize the activity of all the synthetic derivatives. […] Lower values represent higher activity.
(§2) ^9 Cancer cell antiproliferative assays were performed by Dr. Takashi Owa, a postdoctoral fellow in the Stuart L. Schreiber research group.

[2] = test system: HCT116 (Colon) human cancer cell line; assay: In vitro anti-tumor screen, cancer cell antiproliferative assay, HCT116
Experimental: as §1, §2

[3] = test system: A375 (Melanoma) human cancer cell line; assay: In vitro anti-tumor screen, cancer cell antiproliferative assay, A375; conditions: for IC50: Homo sapiens
Experimental: as §1, §2

[4] = test system: PC-3 (Prostate) human cancer cell line; assay: In vitro anti-tumor screen, cancer cell antiproliferative assay, PC-3; conditions: for IC50: Homo sapiens
Experimental: as §1, §2

[5] = Table 5, B-ring substitution at X1, lung, >100 ng/mL considered inactive, read-out: IC50 A-549
[6] = HCT-116, Table 5, B-ring substitution at X1, colon, >100 ng/mL considered inactive, read-out: IC50 HCT-116
[7] = A-375, Table 5, B-ring substitution at X1, melanoma, >100 ng/mL considered inactive, read-out: IC50 A375
[8] = Table 5, B-ring substitution at X1, prostate, >100 ng/mL considered inactive, read-out: IC50 PC-3
[9] = A549, Table 8, additional biological data, first value of cell, read-out: IC50 (ng/mL) Lung
[10] = HCT-116, Table 8, additional biological data, second value of cell, read-out: IC50 (ng/mL) Colon
[11] = A-375, Table 8, additional biological data, third value of cell, read-out: IC50 (ng/mL) Melan.
[12] = Table 8, additional biological data, fourth value of cell, read-out: IC50 (ng/mL) Prost.
[13] = A549, Table 6, A-ring substitution at X2, lung, read-out: IC50 A-549
[14] = HCT-116, Table 6, A-ring substitution at X2, colon, read-out: IC50 HCT 116
[15] = A-375, Table 6, A-ring substitution at X2, melanoma, read-out: IC50 A375
[16] = Table 6, A-ring substitution at X2, prostate, read-out: IC50 PC-3

| Structure (SMILES) | IC50 [1, 5] | IC50 [2, 6] | IC50 [3, 7] | IC50 [4, 8] | IC50 [1, 9] | IC50 [2, 10] | IC50 [3, 11] | IC50 [4, 12] | other results |
| --- | --- | --- | --- | --- | --- | --- | --- | --- | --- |
| COc1c(C)cc2c(c1O)[C@@H]1[C@@H]3Cc4c(OC(C)=O)c(C)c5c(c4[C@H](CN4C(=O)c6ccncc6C4=O)N3[C@@H](C#N)[C@H](C2)N1C)OCO5 [Compound 32] | 11 ng/mL (≈ 16.9 nM) | 2.1 ng/mL (≈ 3.22 nM) | 0.36 ng/mL (≈ 0.552 nM) | 37 ng/mL (≈ 56.8 nM) |  |  |  |  |  |
| COc1c(C)cc2c(c1O)[C@@H]1[C@@H]3Cc4c(OC(C)=O)c(C)c5c(c4[C@H](COC(=O)Nc4ccccc4)N3[C@@H](C#N)[C@H](C2)N1C)OCO5 [Compound 22] | 4.5 ng/mL (≈ 7.02 nM) | 2.3 ng/mL (≈ 3.59 nM) | 1.9 ng/mL (≈ 2.97 nM) | 2.6 ng/mL (≈ 4.06 nM) |  |  |  |  |  |
| COc1c(C)cc2c(c1O)[C@@H]1[C@@H]3Cc4c(OC(C)=O)c(C)c5c(c4[C@H](CNC(=O)c4ccccc4)N3[C@@H](C#N)[C@H](C2)N1C)OCO5 [Compound 63] |  |  |  |  |  |  |  |  | IC50 ([1]; A549, read-out: IC50 Lung): 2 ng/mL (≈ 3.2 nM); IC50 ([2]; HCT-116, read-out: IC50 Colon): 0.37 ng/mL (≈ 0.592 nM); IC50 ([3]; A-375, read-out: IC50 Melanoma): 0.22 ng/mL (≈ 0.352 nM); IC50 ([4]; read-out: IC50 Prostate): 0.4 ng/mL (≈ 0.64 nM) |
| COC1=C(C)C(=O)C2=C(C1=O)[C@H](CN1C(=O)c3ccccc3C1=O)N1[C@@H](C#N)[C@@H]3Cc4cc(C)c(OC)c(O)c4[C@H]([C@@H]1C2)N3C |  |  |  |  | > 100 ng/mL | 24 ng/mL (≈ 39.4 nM) | 9 ng/mL (≈ 14.8 nM) | 22 ng/mL (≈ 36.1 nM) |  |
| COc1c(C)cc2c(c1O)[C@@H]1[C@@H]3Cc4c(O)c(C)c5c(c4[C@H](CN4C(=O)c6ccccc6C4=O)N3[C@@H](C#N)[C@H](C2)N1C)OCO5 [Compound 48] |  |  |  |  |  |  |  |  | IC50 [1, 13]: 30 ng/mL (≈ 49.3 nM); IC50 [2, 14]: 6 ng/mL (≈ 9.86 nM); IC50 [3, 15]: 2.5 ng/mL (≈ 4.11 nM); IC50 [4, 16]: 7.7 ng/mL (≈ 12.7 nM) |
| C=CCOc1c(C)c2c(c3c1C[C@H]1[C@H]4c5c(cc(C)c(OC)c5O)C[C@@H]([C@H](C#N)N1[C@H]3CN1C(=O)c3ccccc3C1=O)N4C)OCO2 [Compound 45] |  |  |  |  |  |  |  |  | IC50 [1, 13]: 5.2 ng/mL (≈ 8.02 nM); IC50 [2, 14]: 2.1 ng/mL (≈ 3.24 nM); IC50 [3, 15]: 0.98 ng/mL (≈ 1.51 nM); IC50 [4, 16]: 3.1 ng/mL (≈ 4.78 nM) |
| COc1c(C)cc2c(c1O)[C@H]1N[C@@H](C2)[C@H](C#N)N2[C@@H](CN3C(=O)c4ccccc4C3=O)c3c(c(OC(C)=O)c(C)c4c3OCO4)C[C@@H]12 |  |  |  |  | 21 ng/mL (≈ 33 nM) | 3.5 ng/mL (≈ 5.5 nM) | 1.9 ng/mL (≈ 2.98 nM) | 3.3 ng/mL (≈ 5.18 nM) |  |
| COc1c(C)cc2c(c1O)[C@@H]1[C@@H]3CC4=C(C(=O)C(O)=C(C)C4=O)[C@H](CN4C(=O)c5ccccc5C4=O)N3[C@@H](C#N)[C@H](C2)N1C |  |  |  |  | 48 ng/mL (≈ 80.7 nM) | 13 ng/mL (≈ 21.9 nM) | 2.1 ng/mL (≈ 3.53 nM) | 9 ng/mL (≈ 15.1 nM) |  |
| COc1c(C)cc2c(c1O)[C@@H]1[C@@H]3Cc4c(OC(C)=O)c(C)c5c(c4[C@H](CN4C(=O)c6ccccc6C4=O)N3[C@@H](C#N)[C@H](C2)N1C)OCO5 |  |  |  |  | 0.67 ng/mL (≈ 1.03 nM) | 0.39 ng/mL (≈ 0.599 nM) | 0.13 ng/mL (≈ 0.2 nM) | 0.34 ng/mL (≈ 0.523 nM) |  |
| COc1c(C)cc2c(c1O)[C@@H]1[C@@H]3Cc4c(OC(C)=O)c(C)c5c(c4[C@H](CN4C(=O)c6ccc(N)cc6C4=O)N3[C@@H](C#N)[C@H](C2)N1C)OCO5 [Compound 20] | 14 ng/mL (≈ 21 nM) | 2.1 ng/mL (≈ 3.15 nM) | 0.79 ng/mL (≈ 1.19 nM) | 2 ng/mL (≈ 3 nM) |  |  |  |  |  |
| COc1c(C)cc2c(c1O)[C@@H]1[C@@H]3Cc4c(OC(C)=O)c(C)c5c(c4[C@H](CN4C(=O)c6ccccc6C4O)N3[C@@H](C#N)[C@H](C2)N1C)OCO5 (some centres unmarked) [Compound 28] | 22 ng/mL (≈ 33.7 nM) | 2.4 ng/mL (≈ 3.68 nM) | 0.79 ng/mL (≈ 1.21 nM) | 2.7 ng/mL (≈ 4.14 nM) |  |  |  |  |  |
| COCOc1c(OC)c(C)cc2c1[C@@H]1[C@@H]3Cc4c(OC(C)=O)c(C)c5c(c4[C@H](CN4C(=O)c6ccccc6C4=O)N3[C@@H](C#N)[C@H](C2)N1C)OCO5 |  |  |  |  | 160 ng/mL (≈ 230 nM) | 51 ng/mL (≈ 73.4 nM) | 46 ng/mL (≈ 66.2 nM) | 68 ng/mL (≈ 97.9 nM) |  |
| CNC(=O)Oc1c(C)c2c(c3c1C[C@H]1[C@H]4c5c(cc(C)c(OC)c5O)C[C@@H]([C@H](C#N)N1[C@H]3CN1C(=O)c3ccccc3C1=O)N4C)OCO2 [Compound 66] |  |  |  |  |  |  |  |  | IC50 ([1]; A549, Table 7, additional analogs, read-out: IC50 Lung): 8.6 ng/mL (≈ 12.9 nM); IC50 ([2]; HCT-116, Table 7, additional analogs, read-out: IC50 Colon): 1.3 ng/mL (≈ 1.95 nM); IC50 ([3]; A-375, Table 7, additional analogs, read-out: IC50 Melanoma): 0.92 ng/mL (≈ 1.38 nM); IC50 ([4]; Table 7, additional analogs, read-out: IC50 Prostate): 2.1 ng/mL (≈ 3.15 nM) |
| COc1c(C)cc2c(c1O)[C@@H]1[C@@H]3Cc4c(OC(C)=O)c(C)c5c(c4[C@H](CN4C(=O)c6ccccc6C4=O)N3[C@@H](C#N)[C@H](C2)N1C)OCO5 [Compound 7] | 0.62 ng/mL (≈ 0.953 nM) | 0.25 ng/mL (≈ 0.384 nM) | 0.11 ng/mL (≈ 0.169 nM) | 0.36 ng/mL (≈ 0.553 nM) |  |  |  |  | IC50 [1, 13]: 0.62 ng/mL (≈ 0.953 nM); IC50 [2, 14]: 0.25 ng/mL (≈ 0.384 nM); IC50 A375 ([3]; Table 6, A-ring substitution at X2, melanoma): 0.11 ng/mL (≈ 0.169 nM); IC50 PC-3 ([4]; Table 6, A-ring substitution at X2, prostate): 0.36 ng/mL (≈ 0.553 nM) |
| COc1c(C)cc2c(c1O)[C@@H]1[C@@H]3Cc4c(OS(C)(=O)=O)c(C)c5c(c4[C@H](CN4C(=O)c6ccccc6C4=O)N3[C@@H](C#N)[C@H](C2)N1C)OCO5 [Compound 44] |  |  |  |  |  |  |  |  | IC50 ([1]; A549, read-out: IC50 A-549): 1.2 ng/mL (≈ 1.75 nM); IC50 ([2]; HCT-116, read-out: IC50 HCT 116): 0.4 ng/mL (≈ 0.582 nM); IC50 ([3]; A-375, read-out: IC50 A375): 0.2 ng/mL (≈ 0.291 nM); IC50 ([4]; read-out: IC50 PC-3): 0.59 ng/mL (≈ 0.859 nM) |
| COc1c(C)cc2c(c1OC(C)=O)[C@@H]1[C@@H]3Cc4c(OC(C)=O)c(C)c5c(c4[C@H](CN4C(=O)c6ccccc6C4=O)N3[C@@H](C#N)[C@H](C2)N1C)OCO5 |  |  |  |  | 40 ng/mL (≈ 57.7 nM) | 20 ng/mL (≈ 28.9 nM) | 8.3 ng/mL (≈ 12 nM) | 17 ng/mL (≈ 24.5 nM) |  |
| COc1c(C)c(Cl)c2c(c1O)[C@@H]1[C@@H]3Cc4c(OC(C)=O)c(C)c5c(c4[C@H](CN4C(=O)c6ccccc6C4=O)N3[C@@H](C#N)[C@H](C2)N1C)OCO5 |  |  |  |  | 1.9 ng/mL (≈ 2.77 nM) | 0.7 ng/mL (≈ 1.02 nM) | 0.24 ng/mL (≈ 0.35 nM) | 0.73 ng/mL (≈ 1.07 nM) |  |
| COc1c(C)cc2c(c1O)[C@@H]1[C@@H]3Cc4c(OC(C)=O)c(C)c5c(c4[C@H](CNC(=O)Cc4ccc(O)cc4)N3[C@@H](C#N)[C@H](C2)N1C)OCO5 [Compound 56] | > 100 ng/mL | 20 ng/mL (≈ 30.5 nM) | 6.5 ng/mL (≈ 9.93 nM) | 24 ng/mL (≈ 36.7 nM) |  |  |  |  |  |
| COc1c(C)cc2c(c1O)[C@@H]1[C@@H]3Cc4c(O)c(C)c5c(c4[C@H](CNC(=O)Cc4ccc(OC(C)=O)cc4)N3[C@@H](C#N)[C@H](C2)N1C)OCO5 |  |  |  |  | > 100 ng/mL | > 100 ng/mL | > 100 ng/mL | > 100 ng/mL |  |
| COC1=C(C)C(=O)C2=C(C1=O)[C@@H]1[C@@H]3Cc4c(OC(C)=O)c(C)c5c(c4[C@H](CN4C(=O)c6ccccc6C4=O)N3[C@@H](C#N)[C@H](C2)N1C)OCO5 |  |  |  |  | 1.1 ng/mL (≈ 1.65 nM) | 0.53 ng/mL (≈ 0.797 nM) | 0.3 ng/mL (≈ 0.451 nM) | 0.45 ng/mL (≈ 0.677 nM) |  |
| COc1c(C)c(Br)c2c(c1O)[C@@H]1[C@@H]3Cc4c(OC(C)=O)c(C)c5c(c4[C@H](CN4C(=O)c6ccccc6C4=O)N3[C@@H](C#N)[C@H](C2)N1C)OCO5 |  |  |  |  | 4.7 ng/mL (≈ 6.44 nM) | 1.3 ng/mL (≈ 1.78 nM) | 0.47 ng/mL (≈ 0.644 nM) | 2 ng/mL (≈ 2.74 nM) |  |
| COc1c(C)cc2c(c1O)[C@@H]1[C@@H]3Cc4c(OC(C)=O)c(C)c5c(c4[C@H](CN4Cc6ccccc6C4=O)N3[C@@H](C#N)[C@H](C2)N1C)OCO5 [Compound 27] | 7.2 ng/mL (≈ 11.3 nM) | 2.2 ng/mL (≈ 3.46 nM) | 0.71 ng/mL (≈ 1.12 nM) | 1.7 ng/mL (≈ 2.67 nM) |  |  |  |  |  |
